Consider 4 molecules from article PMC9318816, “Differential Effects of a Novel Opioid Ligand UTA1003 on Antinociceptive Tolerance and Motor Behaviour” (Pharmaceuticals, 2022).

Where two headings read alike, the source gives them in different places. Non-standard residues stand in square brackets, D forms with d. Residues, ends and D or L forms follow the SMILES beside them. *: point of attachment. Dmt = Cc1cc(O)cc(C)c1C[C@H](N)C(=O)O; Pip = O=C(O)[C@@H]1CCCCN1; NHBn = c1ccc(CN*)cc1

Data set [1] is described as follows: Solubility (subjective). Type of data set: physicochemical. The conditions noted are these: detailed solubility experiments not performed.
In data set [2] the target is T1, human DOP receptor (Homo sapiens, UniProt P41143).
T1 construct: expressed in transfected cells; host or cells: CHO (CHO-DOP, G418 selection)
T1 sequence (P41143 whole entry): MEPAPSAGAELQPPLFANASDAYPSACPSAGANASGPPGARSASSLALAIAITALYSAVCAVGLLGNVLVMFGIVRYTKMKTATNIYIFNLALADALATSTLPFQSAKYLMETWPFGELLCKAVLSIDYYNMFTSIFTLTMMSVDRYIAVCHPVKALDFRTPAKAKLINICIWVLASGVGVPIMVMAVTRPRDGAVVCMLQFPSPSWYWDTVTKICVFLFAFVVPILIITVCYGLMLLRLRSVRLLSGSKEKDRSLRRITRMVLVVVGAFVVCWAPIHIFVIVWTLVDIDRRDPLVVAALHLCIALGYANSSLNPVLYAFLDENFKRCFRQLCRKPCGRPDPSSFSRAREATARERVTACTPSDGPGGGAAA
The experiment in a line: cAMP assay in CHO-DOP cells (agonism). As to conditions: for Inhibition of forskolin-stimulated cAMP production: 100 µM ligand, CHO-DOP cells, reference DPDPE. Type of data set: cell-based. For orientation: Changes in cAMP serve as a functional read-out for many G protein-coupled receptors.

Data set [3] deals with Sprague Dawley rats. In words: Open-field motor behaviour.
The test system of data set [4] is rat hippocampus. Details: method as in earlier work. As to conditions: approximately five times lower dose; cited from earlier work.
The target in data set [5] is T1, human DOP receptor. In words: Antagonism of DPDPE effect in cAMP assay, CHO-DOP cells. Type of data set: cell-based. As to the method:
The antagonist effect of UTA1003 was calculated as described in previous studies. […] (Figure 3E, Table 1).
For a direct comparison between the UTA ligands, standard compounds, and for the concentration-response curves, the pharmacological effect was calculated as % of inhibition of forskolin-induced cAMP production, and the values were used for statistical analysis.

Data set [6] relates to Sprague Dawley rats. The experiment in a line: Observation of physiological or behavioural toxicity after subcutaneous administration. The conditions noted are these: for Physiological or behavioural toxicity: subcutaneous administration.
Data set [7] relates to untransfected Chinese hamster ovary (CHO-WT) cells. The experiment in a line: cAMP assay: inhibition of forskolin-stimulated cAMP in untransfected CHO cells. Type of data set: cell-based. As to conditions: 100 µM ligand, 1 µM forskolin.
The target of data set [8] is T2, human NOP receptor (Homo sapiens, UniProt P41146).
T2 construct: expressed in transfected cells; host or cells: CHO (CHO-NOP, G418 and hygromycin B selection)
T2 sequence (P41146 whole entry): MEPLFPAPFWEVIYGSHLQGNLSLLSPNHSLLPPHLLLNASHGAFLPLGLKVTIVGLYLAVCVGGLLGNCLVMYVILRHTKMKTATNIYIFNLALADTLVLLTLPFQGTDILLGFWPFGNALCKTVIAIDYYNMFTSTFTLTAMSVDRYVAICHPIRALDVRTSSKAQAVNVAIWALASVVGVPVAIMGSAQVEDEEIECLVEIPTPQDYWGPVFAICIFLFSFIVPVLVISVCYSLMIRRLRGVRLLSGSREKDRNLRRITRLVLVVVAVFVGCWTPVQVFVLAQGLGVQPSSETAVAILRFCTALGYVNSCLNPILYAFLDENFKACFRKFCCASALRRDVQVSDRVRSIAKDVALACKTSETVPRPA
In words: cAMP assay in CHO-NOP cells (agonism). Type of data set: cell-based.

Data set [9] deals with T3, human KOP receptor (Homo sapiens, UniProt P41145).
T3 construct: expressed in transfected cells; host or cells: CHO (CHO-KOP, G418 selection)
T3 sequence (P41145 whole entry): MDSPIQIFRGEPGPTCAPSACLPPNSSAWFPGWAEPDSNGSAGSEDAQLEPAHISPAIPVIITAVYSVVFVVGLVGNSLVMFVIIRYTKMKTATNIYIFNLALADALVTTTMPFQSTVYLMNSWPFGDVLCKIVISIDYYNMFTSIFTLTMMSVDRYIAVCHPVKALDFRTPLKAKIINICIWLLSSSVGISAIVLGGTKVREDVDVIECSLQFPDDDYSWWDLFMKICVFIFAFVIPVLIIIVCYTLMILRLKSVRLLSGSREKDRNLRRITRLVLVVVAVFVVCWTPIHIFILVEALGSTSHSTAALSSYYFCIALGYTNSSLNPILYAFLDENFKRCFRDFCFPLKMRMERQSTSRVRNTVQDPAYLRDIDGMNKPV
In words: cAMP assay in CHO-KOP cells (agonism). Type of data set: cell-based.

Data set [10] concerns the target T4, human MOP receptor (Homo sapiens, UniProt P35372).
T4 construct: expressed in transfected cells; host or cells: CHO (CHO-MOP, G418 selection)
In words: cAMP assay in CHO-MOP cells (agonism). Type of data set: cell-based.

Data set [11] deals with KOP receptor. Also on record: method as in PMID 22194444. As to conditions: partial agonist; cited from earlier work.
The target in data set [12] is DOP receptor. The conditions noted are these: cited from earlier work.
The target of data set [13] is NOP receptor. Details: method as in PMID 22194444. As to conditions: partial agonist; cited from earlier work.
The subject of data set [14] is Sprague Dawley rats. The experiment in a line: Hot plate antinociception assay. As to conditions: repeated s.c. twice daily treatment; days 2, 5 and 8.

T4 sequence (P35372 whole entry): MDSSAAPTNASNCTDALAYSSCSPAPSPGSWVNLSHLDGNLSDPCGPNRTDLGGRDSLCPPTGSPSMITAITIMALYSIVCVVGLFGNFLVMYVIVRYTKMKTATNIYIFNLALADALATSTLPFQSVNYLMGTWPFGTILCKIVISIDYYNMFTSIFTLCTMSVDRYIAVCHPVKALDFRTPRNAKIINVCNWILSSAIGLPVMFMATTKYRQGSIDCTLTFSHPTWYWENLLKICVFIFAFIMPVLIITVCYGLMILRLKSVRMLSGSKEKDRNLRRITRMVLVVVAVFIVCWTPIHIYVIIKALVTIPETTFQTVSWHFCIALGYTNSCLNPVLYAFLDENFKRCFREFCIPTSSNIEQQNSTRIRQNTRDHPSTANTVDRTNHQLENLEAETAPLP

The Emax is the size of the effect at its maximum, as opposed to the concentration needed. Usually EC50 stands for the midpoint of the concentration-response curve. Low readings indicate a more potent agent, high ones a less potent agent. The term Kd denotes the concentration at which binding is half-saturated. Consider `Cc1cc(O)cc(C)c1C[C@H](N)C(=O)N1CCCC[C@H]1C(=O)NCC(=O)NCc1ccccc1` [UTA1003] (H-[Dmt]-[Pip]-Gly-NHBn), for which the “Solubility compared to UFP-505” value in data set [1] is “subjectively displayed better solubility”. The Emax in [2] amounted to 28.2%; in [8], 28.3%; in data set [9], 94.5%; in [10], 82.4%. The “Inhibition of forskolin-stimulated cAMP production” value in data set [2] is “significantly lower specificity than DPDPE”; in [7], “not observed”. For the same molecule, the EC50 is 26.6 nM in [2] (EC50, CHO-DOP, 1 µM forskolin); 26.3 nM in data set [2] (pEC50, CHO-DOP); 1790 nM in data set [8] (EC50, CHO-NOP, 5 µM forskolin); 1780 nM in data set [8] (pEC50, CHO-NOP); 30.9 nM in data set [9] (EC50); 30.9 nM in data set [9] (pEC50). Moreover, the EC50 in data set [10] (EC50, CHO-MOP, 1 µM forskolin) was 6.89 nM; in [10] (pEC50, CHO-MOP), 6.92 nM. Further, the “Rearing time and rearing numbers, open field” value in data set [3] (acute s.c., 30 min post administration) was “slightly reduced rearing time and rearing numbers than vehicle”. Further, the “Total rotational activities, open field” value in [3] (acute s.c., 120 min observation) is on record as “remained unaffected”. For the same molecule, the “Moving distance, open field” value in data set [3] (acute s.c., UTA1003 24.6 mg/kg) is “unaffected”. The “Moving time, open field” value in data set [3] (acute s.c., UTA1003 24.6 mg/kg, 30 min post administration) was “significantly reduced moving time compared to the vehicle group”. Further, the “Motor behaviour after repeated treatment, open field” value in data set [3] (s.c. twice daily over 8 days, 30 min post administration) is “only a mild but significant suppression of motor activity on the first day”. Besides, in [4], the “Oxidative damage in the rat hippocampus” value is given as “reduced oxidative damage in the rat hippocampus”. Besides, in data set [5] (CHO-DOP, read-out: DOP receptor antagonism pKb (converted)), the Kb was 47.9 nM. Further, in data set [5] (read-out: Antagonist Effect (Kd)), the dissociation constant (Kd) amounted to 47.8 nM. Besides, the Itching entry in [6] (repeated dosing) is “absent”. In addition, the “Physiological or behavioural toxicity” value in data set [6] is “did not observe any physiological or behavioural toxicity”.

As to `C[C@@H](NC(=O)[C@@H](N)Cc1ccc(O)cc1)C(=O)NCC(=O)N(C)[C@@H](Cc1ccccc1)C(=O)NCCO` [DAMGO, reference compound], in data set [10] (CHO-MOP, inhibition of forskolin-stimulated cAMP, read-out: Emax (%)), the Emax was 88.8%.

Broadly, the pKi is −log10 of the Ki, conventionally taken in molar units. As for H-Dmt-Tic-Gly-NH-Bzl [UFP-505], the pKi in [11] is 6.29; in data set [13], 5.86. Besides, the “Inhibition of forskolin-stimulated cAMP production” value in data set [2] was “significantly lower specificity than DPDPE”; in data set [7] it was “not observed”. Also, the “DOP receptor antagonism pKb” value in [12] (ref 37) was 9.81; in data set [12] (ref 60) it was 10.50. In addition, the “Physiological or behavioural toxicity” value in [6] is “did not observe any physiological or behavioural toxicity”.

As for `CN1CC[C@]23c4c5ccc(O)c4O[C@H]2[C@@H](O)C=C[C@H]3[C@H]1C5` [morphine], the “Antinociception, morphine versus UTA1003/morphine at same day, hot plate” value in [14] was “significantly lower than those of the UTA1003/morphine co-treatment on day 2”.
